Data published in publication PMC6522524 (Nature Communications, 2019).
Values joined by “and” are separate entries in the source; they are usually repeats but may differ in a detail not shown here. Identical values can stand only once. Like-named read-outs stand apart in the source and are kept apart here.

Tests used:
[1] = test system: Huh-7 cells; test: in vitro; assay type: cell-based, human; conditions: Huh7+HBV 1.2X; With DFO; Concentration 0 μM
Description: (§1) Supplementary Fig. 11. Effect of FBS serum iron level on Huh-7, HepG2, and HepG2.2.15 cell
(§2) a Cells were maintained in medium supplemented with 2% FBS or 10% FBS for 1 day and treated with
(§3) After 6 days, cytotoxicity was measured. b Cells were treated with
(§4) the ± SD. *p < 0.05 by unpaired two-tailed Student’s t-test.

[2] = test system: HepG2 cells; test: in vitro; assay type: cell-based, human; conditions: HepG2+HBV 1.2X; With DFO; Concentration 0 μM
Description: as §1, §2, §3, §4

[3] = test system: HepG2.2.15 cells; conditions: HepG2.2.15; With DFO; Concentration 0 μM
[4] = test system: HBV replicative plasmid pAAV-HBV1.2× in C57BL/6 mice; test: Hydrodynamic injection mouse model (pAAV-HBV1.2×, C57BL/6 mice); assay type: in vivo; conditions: for HBsAg, Sample1-5: single samples
[5] = test system: HBV (genotype D) in PXB mice; conditions: for ALT(ng/mL), Sample1-3 / HBeAg(Signal to control ratio), Sample1-3 / HBsAg(ng/mL), Sample1-3 / Human albumin(g/dL), Sample1-3: individual samples
[6] = test system: HBV cccDNA in HepG2-NTCP cells; test: In vitro HBV infection model, HepG2-NTCP cells: intracellular cccDNA; conditions: HepG2-NTCP
Description: (§5) HepG2 and Huh-7 cells permanently expressing NTCP were generated by infecting them with an NTCP-encoding recombinant retrovirus and isolating GFP-expressing cells.
(§6) The isolated intracellular HBV DNA was subjected to PCR with an HBV DNA primer and probe set (Supplementary Table 1). cccDNA was isolated by the Hirt extraction method[54]. Briefly, the cells were lysed in SDS lysis buffer (50 mM Tris-HCl, pH 8.0, 10 mM EDTA, 150 mM NaCl, 1% SDS), and the lysates were mixed with KCl to a final concentration of 0.5 M. After incubation at 4 °C for 30 min, each lysate was centrifuged and the supernatant was extracted three times with phenol and once with chloroform. The DNA was then recovered by ethanol precipitation, and treated with T5 nuclease (10 U per μg for 0.5 h, M0363, New England Biolabs), and the enzyme was subsequently heat-denatured at 70 °C. The isolated cccDNA was subjected to PCR with a cccDNA primer and probe set (Supplementary Table 1).
(§7) HepG2-NTCP and Huh-7-NTCP cells were cultured in 12-well plates with the indicated compound(s) for 4 h, after which the cells were infected with HBV particles (10^7 viral genome equivalent per mL, genotype D) and treated with the indicated compound(s) for another 16 h. […]
(§8) Quantitative PCR with an HBV DNA primer and probe set was used to measure intracellular
(§9) cccDNA. The data are expressed as means ± SDs. […]

[7] = test system: HBV cccDNA in Huh-7-NTCP cells; test: In vitro HBV infection model, Huh-7-NTCP cells: intracellular cccDNA; conditions: Huh-7-NTCP
Description: as §5, §6, §7, §8, §9

[8] = target: the molecule itself; test: crystal structure
[9] = 5 mg per kg oral daily, by day 5

CC(=O)N(O)CCCCCNC(=O)CCC(=O)N(O)CCCCCNC(=O)CCC(=O)N(O)CCCCCN [DFO]
Cell viability(%), AVERAGE, DFO alone [1]: 97.5263%
Cell viability(%), AVERAGE, DFO alone [2]: 98.1893%
Cell viability(%), AVERAGE, DFO alone [3]: 97.6681%

C[C@H](Cn1cnc2c(N)ncnc21)OCP(=O)(O)O [TDF, tenofovir]
HBV core protein levels in the liver [4, 9]: reduced HBV core protein levels in the liver
serum HBV DNA levels [4, 9]: significantly lowered serum HBV DNA levels
HBsAg, AVERAGE ([4]; day 2): 271.658 ng/mL
HBsAg, AVERAGE ([4]; day 3): 286.73 ng/mL
HBsAg, AVERAGE ([4]; day 4): 300.864 ng/mL
HBsAg, AVERAGE ([4]; day 5): 301.678 ng/mL
HBsAg, Sample1-5 ([4]; day 2): 271.684 ng/mL and 284.96 ng/mL and 258.424 ng/mL and 258.29 ng/mL and 284.933 ng/mL
HBsAg, Sample1-5 ([4]; day 3): 286.759 ng/mL and 301.375 ng/mL and 272.159 ng/mL and 272.011 ng/mL and 301.346 ng/mL
HBsAg, Sample1-5 ([4]; day 4): 300.869 ng/mL and 303.445 ng/mL and 298.296 ng/mL and 298.27 ng/mL and 303.44 ng/mL
HBsAg, Sample1-5 ([4]; day 5): 301.701 ng/mL and 312.285 ng/mL and 291.119 ng/mL and 291.012 ng/mL and 312.273 ng/mL
intrahepatic cccDNA ([5]; 5 mg per kg oral daily, by week 5): significantly reduced the amount of intrahepatic cccDNA
HBeAg levels ([5]; 5 mg per kg oral daily, by week 5, compared to control): significantly decreased HBeAg levels
cccDNA, individual samples ([5]; Figure 7g, Sample1-3): 0.17 log copies/cell and 0.21 log copies/cell and 0.12 log copies/cell
cccDNA, AVERAGE ([5]; Figure 7g, average of 3 samples): 0.166 log copies/cell
Serum HBV DNA, AVERAGE ([5]; mouse, in vivo): 4.377 log copies/mL
Serum HBV DNA, individual samples ([5]; mouse, in vivo): 4.385 log copies/mL and 3.759 log copies/mL and 4.998 log copies/mL
Serum ALT levels ([5]; mouse, in vivo, po): decreased
ALT(ng/mL), AVERAGE ([5]; week 0): 115.048 ng/mL
HBeAg(Signal to control ratio), AVERAGE ([5]; week 0): 3.779 Signal to control ratio
HBsAg(ng/mL), AVERAGE ([5]; week 0): 399.9 ng/mL
Human albumin(g/dL), AVERAGE ([5]; week 0): 4.601 g/dL
ALT(ng/mL), Sample1-3 ([5]; week 0): 115.042 ng/mL and 132.129 ng/mL and 97.9737 ng/mL
HBeAg(Signal to control ratio), Sample1-3 ([5]; week 0): 3.7788 Signal to control ratio and 3.545 Signal to control ratio and 4.013 Signal to control ratio
HBsAg(ng/mL), Sample1-3 ([5]; week 0): 400.008 ng/mL and 382.767 ng/mL and 416.907 ng/mL
Human albumin(g/dL), Sample1-3 ([5]; week 0): 4.6008 g/dL and 4.367 g/dL and 4.835 g/dL
ALT(ng/mL), AVERAGE ([5]; week 1): 115.048 ng/mL
HBeAg(Signal to control ratio), AVERAGE ([5]; week 1): 3.705 Signal to control ratio
HBsAg(ng/mL), AVERAGE ([5]; week 1): 397.7 ng/mL
Human albumin(g/dL), AVERAGE ([5]; week 1): 4.701 g/dL
ALT(ng/mL), Sample1-3 ([5]; week 1): 115.042 ng/mL and 132.61 ng/mL and 97.4937 ng/mL
HBeAg(Signal to control ratio), Sample1-3 ([5]; week 1): 3.705 Signal to control ratio and 3.582 Signal to control ratio and 3.828 Signal to control ratio
HBsAg(ng/mL), Sample1-3 ([5]; week 1): 397.708 ng/mL and 379.982 ng/mL and 415.082 ng/mL
Human albumin(g/dL), Sample1-3 ([5]; week 1): 4.7008 g/dL and 4.578 g/dL and 4.824 g/dL
ALT(ng/mL), AVERAGE ([5]; week 2): 67.3429 ng/mL
HBeAg(Signal to control ratio), AVERAGE ([5]; week 2): 3.6862 Signal to control ratio
HBsAg(ng/mL), AVERAGE ([5]; week 2): 390.5 ng/mL
Human albumin(g/dL), AVERAGE ([5]; week 2): 4.6007 g/dL
ALT(ng/mL), Sample1-3 ([5]; week 2): 67.3361 ng/mL and 86.0047 ng/mL and 48.688 ng/mL
HBeAg(Signal to control ratio), Sample1-3 ([5]; week 2): 3.6863 Signal to control ratio and 3.541 Signal to control ratio and 3.831 Signal to control ratio
HBsAg(ng/mL), Sample1-3 ([5]; week 2): 390.508 ng/mL and 371.671 ng/mL and 408.971 ng/mL
Human albumin(g/dL), Sample1-3 ([5]; week 2): 4.6008 g/dL and 4.456 g/dL and 4.746 g/dL
ALT(ng/mL), AVERAGE ([5]; week 3): 35.9023 ng/mL
HBeAg(Signal to control ratio), AVERAGE ([5]; week 3): 3.392 Signal to control ratio
HBsAg(ng/mL), AVERAGE ([5]; week 3): 386.5 ng/mL
Human albumin(g/dL), AVERAGE ([5]; week 3): 4.4 g/dL
HBeAg(Signal to control ratio), Sample1-3 ([5]; week 3): 3.3922 Signal to control ratio and 2.738 Signal to control ratio and 4.046 Signal to control ratio
HBsAg(ng/mL), Sample1-3 ([5]; week 3): 386.508 ng/mL and 366.308 ng/mL and 406.308 ng/mL
Human albumin(g/dL), Sample1-3 ([5]; week 3): 4.4008 g/dL and 3.746 g/dL and 5.054 g/dL
ALT(ng/mL), AVERAGE ([5]; week 4): 31.5198 ng/mL
HBeAg(Signal to control ratio), AVERAGE ([5]; week 4): 3.246 Signal to control ratio
HBsAg(ng/mL), AVERAGE ([5]; week 4): 375.5 ng/mL
Human albumin(g/dL), AVERAGE ([5]; week 4): 4.601 g/dL
HBeAg(Signal to control ratio), Sample1-3 ([5]; week 4): 3.2465 Signal to control ratio and 2.922 Signal to control ratio and 3.57 Signal to control ratio
HBsAg(ng/mL), Sample1-3 ([5]; week 4): 375.508 ng/mL and 355.54 ng/mL and 395.08 ng/mL
Human albumin(g/dL), Sample1-3 ([5]; week 4): 4.6008 g/dL and 4.276 g/dL and 4.924 g/dL
ALT(ng/mL), AVERAGE ([5]; week 5): 19.0197 ng/mL
HBeAg(Signal to control ratio), AVERAGE ([5]; week 5): 3.146 Signal to control ratio
HBsAg(ng/mL), AVERAGE ([5]; week 5): 370.7 ng/mL
Human albumin(g/dL), AVERAGE ([5]; week 5): 4.801 g/dL
HBeAg(Signal to control ratio), Sample1-3 ([5]; week 5): 3.1465 Signal to control ratio and 2.933 Signal to control ratio and 3.359 Signal to control ratio
HBsAg(ng/mL), Sample1-3 ([5]; week 5): 370.708 ng/mL and 351.467 ng/mL and 389.567 ng/mL
Human albumin(g/dL), Sample1-3 ([5]; week 5): 4.8008 g/dL and 4.588 g/dL and 5.014 g/dL
cccDNA levels [6]: reduced cccDNA levels
cccDNA levels [7]: reduced cccDNA levels

B1: Cp149-Y132A (Y132A mutant of Cp149) (domain or fragment)
chain: MDIDPYKEFGATVELLSFLPSDFFPSVRDLLDTAAALYRDALESPEHCSPHHTALRQAILCWGDLMTLATWVGTNLEDPASRDLVVSYVNTNVGLKFRQLLWFHISCLTFGRETVLEYLVSFGVWIRTPPAARPPNAPILSTLPETTVV
notes: source: E. coli BL21 (DE3), purified (Ni-NTA, thrombin, HiTrap Q anion exchange)
stoichiometry N [8]: 6
